Reference: ChEMBL document CHEMBL2057086, “3-Bromo-3-deazaneplanocin and 3-bromo-3-deazaaristeromycin: synthesis and antiviral activity” (Bioorg Med Chem Lett, 2012)
Active and inactive are the calls of the source. The rule behind the calls is not given here.

Tests used:
[1] = Selectivity index, ratio of CC50 for african green monkey Vero 76 cells to EC50 for Tacaribe virus; format: toxicity, cell-based; conditions: read-out: Selectivity Index
Feline coronavirus = experiment: Antiviral activity against Feline coronavirus assessed as reduction of viral replication; format: functional, organism-based
Felid alphaherpesvirus 1 = experiment: Antiviral activity against Feline herpesvirus infected in cat CRFK cells assessed as reduction of viral replication; format: functional, organism-based; conditions: Felid alphaherpesvirus 1, CRFK
[2] = Cytotoxicity against cat CRFK cells assessed as reduction of cell viability; format: cell-based, Felis catus
Human respirovirus 3 = experiment: Antiviral activity against Parainfluenza-3 virus infected in african green monkey Vero cells assessed as reduction of viral replication; format: functional, organism-based; conditions: Human respirovirus 3, Vero
[3] = Selectivity index, ratio of CC50 for MDCK cells to EC50 for Influenza A virus H3N2; format: toxicity, cell-based; conditions: dog, read-out: Ratio CC50/EC50
Hepatitis B virus = experiment: Antiviral activity against HBV infected in human HepG2(2.2.15) cells assessed as reduction of viral replication; format: functional, organism-based
Influenza A virus [4] = experiment: Antiviral activity against Influenza A virus H1N1 infected in MDCK cells assessed as reduction of viral replication; format: functional, organism-based
[5] = Selectivity index, ratio of CC50 for cat CRFK cells to EC50 for Feline herpesvirus; format: toxicity, cell-based; conditions: read-out: Selectivity Index
[6] = Cytotoxicity against african green monkey Vero cells assessed as minimum compound concentration required to cause microscopically detectable alteration of normal cell morphology; format: cell-based; conditions: chlorocebus sabaeus, read-out: Activity
[7] = Selectivity index, ratio of CC50 for african green monkey Vero 76 cells to EC50 for Punta Toro virus; format: toxicity, cell-based; conditions: read-out: Selectivity Index
Punta Toro virus = experiment: Antiviral activity against Punta Toro virus infected in african green monkey Vero 76 cells assessed as reduction of viral replication; format: functional, organism-based
Human alphaherpesvirus 1 = experiment: Antiviral activity against HSV-1 infected in HEL assessed as reduction of viral replication; format: functional, organism-based
Influenza A virus [8] = experiment: Antiviral activity against Influenza A virus H5N1 infected in MDCK cells assessed as reduction of viral replication; format: functional, organism-based
Influenza A virus [9] = experiment: Antiviral activity against Influenza A virus H3N2 infected in MDCK cells assessed as reduction of viral replication; format: functional, organism-based
Human alphaherpesvirus 2 = experiment: Antiviral activity against HSV-2 infected in HEL assessed as reduction of viral replication; format: functional, organism-based
[10] = Selectivity index, ratio of CC50 for human Akata cells to EC50 for Epstein-Barr virus; format: toxicity, cell-based; conditions: read-out: Selectivity Index
[11] = Cytotoxicity against african green monkey Vero cells assessed as reduction of cell viability; format: cell-based; conditions: chlorocebus sabaeus
Human gammaherpesvirus 4 = experiment: Antiviral activity against Epstein-Barr virus infected in human Akata cells assessed as reduction of viral replication; format: functional, organism-based; conditions: human gammaherpesvirus 4, Akata
Junin virus = experiment: Antiviral activity against Junin virus infected in african green monkey Vero cells assessed as reduction of viral replication; format: functional, organism-based; conditions: Mammarenavirus juninense
[12] = tested on: Mammalian orthoreovirus 1; experiment: Antiviral activity against Reovirus 1 infected in african green monkey Vero cells assessed as reduction of viral replication; format: functional, organism-based
[13] = Selectivity index, ratio of CC50 for african green monkey Vero cells to EC50 for Junin virus; format: toxicity, cell-based; conditions: read-out: Selectivity Index
[14] = Selectivity index, ratio of CC50 for MDCK cells to EC50 for Influenza B virus; format: toxicity, cell-based; conditions: dog, read-out: Ratio CC50/EC50
Rift Valley fever virus = experiment: Antiviral activity against Rift Valley fever virus infected in african green monkey Vero 76 cells assessed as reduction of viral replication; format: functional, organism-based
Cowpox virus = experiment: Antiviral activity against Cowpox virus infected in HFF cells assessed as reduction of viral replication; format: functional, organism-based
[15] = Selectivity index, ratio of CC50 for MDCK cells to EC50 for Influenza A virus H5N1; format: toxicity, cell-based; conditions: dog, read-out: Ratio CC50/EC50
[16] = Selectivity index, ratio of CC50 for african green monkey Vero cells to EC50 for Pichinde virus; format: toxicity, cell-based; conditions: read-out: Selectivity Index
[17] = Selectivity index, ratio of CC50 for african green monkey Vero cells to EC50 for Dengue virus; format: toxicity, cell-based; conditions: read-out: Selectivity Index
[18] = tested on: Vesicular stomatitis virus; experiment: Antiviral activity against Vesicular stomatitis virus infected in human HeLa cells assessed as reduction of viral replication; format: functional, organism-based
[19] = Cytotoxicity against MDCK cells assessed as reduction of cell viability; format: cell-based, Canis lupus familiaris; conditions: dog
Vaccinia virus = experiment: Antiviral activity against Vaccinia virus infected in human HeLa cells assessed as reduction of viral replication; format: functional, organism-based; conditions: Orthopoxvirus vaccinia
Coxsackievirus B4 = experiment: Antiviral activity against Coxsackievirus B4 virus infected in african green monkey Vero cells assessed as reduction of viral replication; format: functional, organism-based
Tacaribe virus = experiment: Antiviral activity against Tacaribe virus infected in african green monkey Vero 76 cells assessed as reduction of viral replication; format: functional, organism-based; conditions: Mammarenavirus tacaribeense
Influenza B virus = experiment: Antiviral activity against Influenza B virus infected in MDCK cells assessed as reduction of viral replication; format: functional, organism-based
[20] = Selectivity index, ratio of CC50 for african green monkey Vero 76 cells to EC50 for Rift Valley fever virus; format: toxicity, cell-based; conditions: read-out: Selectivity Index
[21] = Selectivity index, ratio of CC50 for MDCK cells to EC50 for Influenza A virus H1N1; format: toxicity, cell-based; conditions: dog, read-out: Ratio CC50/EC50
[22] = tested on: Venezuelan equine encephalitis virus; experiment: Antiviral activity against Venezuelan equine encephalitis virus infected in african green monkey Vero cells assessed as reduction of viral replication; format: functional, organism-based
Dengue virus = experiment: Antiviral activity against Dengue virus infected in african green monkey Vero cells assessed as reduction of viral replication; format: functional, organism-based
West Nile virus = experiment: Antiviral activity against West Nile virus infected in african green monkey Vero cells assessed as reduction of viral replication; format: functional, organism-based
[23] = Cytotoxicity against human HeLa assessed as minimum compound concentration required to cause microscopically detectable alteration of normal cell morphology; format: cell-based; conditions: HeLa cells, read-out: Activity
[24] = Cytotoxicity against human Akata cells assessed as reduction of cell viability; format: cell-based
[25] = Cytotoxicity against african green monkey Vero 76 cells assessed as reduction of cell viability; format: cell-based; conditions: chlorocebus sabaeus
Pichinde virus = experiment: Antiviral activity against Pichinde virus infected in african green monkey Vero cells assessed as reduction of viral replication; format: functional, organism-based
Sindbis virus = experiment: Antiviral activity against Sindbis virus infected in african green monkey Vero cells assessed as reduction of viral replication; format: functional, organism-based
[26] = Cytotoxicity against HEL assessed as reduction of cell viability; format: cell-based; conditions: human, HEL cells
[27] = Selectivity index, ratio of minimum compound concentration required to cause microscopically detectable alteration of normal cell morphology for human HeLa cells to EC50 for Vaccinia virus; format: toxicity, cell-based; conditions: read-out: Selectivity Index
SARS-CoV = experiment: Antiviral activity against SARS coronavirus infected in african green monkey Vero cells assessed as reduction of viral replication; format: functional, organism-based; conditions: Severe acute respiratory syndrome-related coronavirus
Measles morbillivirus = experiment: Antiviral activity against Measles virus infected in african green monkey Vero cells assessed as reduction of viral replication; format: functional, organism-based
Hepatitis C virus = experiment: Antiviral activity against Hepatitis C virus infected in human AVA5 cells assessed as reduction of viral replication; format: functional, organism-based; conditions: Hepacivirus hominis
[28] = Selectivity index, ratio of CC50 for african green monkey Vero cells to EC50 for Yellow fever virus; format: toxicity, cell-based; conditions: read-out: Ratio CC50/EC50
[29] = tested on: Respiratory syncytial virus; experiment: Antiviral activity against Respiratory syncytial virus infected in […] cells assessed as reduction of viral replication; format: functional, organism-based
[30] = Selectivity index, ratio of CC50 for african green monkey Vero cells to EC50 for Measles virus; format: toxicity, cell-based; conditions: read-out: Ratio CC50/EC50
Yellow fever virus = experiment: Antiviral activity against Yellow fever virus infected in african green monkey Vero cells assessed as reduction of viral replication; format: functional, organism-based
Cytomegalovirus = experiment: Antiviral activity against Cytomegalovirus infected in HEL assessed as reduction of viral replication; format: functional, organism-based; conditions: Human betaherpesvirus 5
[31] = Selectivity index, ratio of CC50 for HEL to EC50 Cytomegalovirus

Nc1ncc(Br)c2c1ncn2[C@@H]1C=C(CO)[C@@H](O)[C@H]1O
selectivity ratio [1]: > 2000
Activity (Feline coronavirus): inactive
EC50 (Felid alphaherpesvirus 1): 200 nM
CC50 [2]: 94 µM
EC50 (Human respirovirus 3): 500 nM
selectivity ratio [3]: > 190
Activity (Hepatitis B virus): inactive
EC50 (Influenza A virus [4]): < 0.094 µM
selectivity ratio [5]: 470
MCC [6]: > 100 µM
selectivity ratio [7]: 140
EC50 (Punta Toro virus): 250 nM
Activity (Human alphaherpesvirus 1): inactive
EC50 (Influenza A virus [8]): 940 nM
EC50 (Influenza A virus [9]): 1550 nM
Activity (Human alphaherpesvirus 2): inactive
selectivity ratio [10]: < 4.3
CC50 [11]: 15.2 µM
EC50 (Human gammaherpesvirus 4): > 30 nM
EC50 (Junin virus): 94 nM
Activity [12]: inactive
selectivity ratio [13]: 160
selectivity ratio [14]: < 7
EC50 (Rift Valley fever virus): < 0.094 µM
Activity (Cowpox virus): inactive
selectivity ratio [15]: > 310
selectivity ratio [16]: 24
selectivity ratio [17]: 57
EC50 [18]: 400 nM
CC50 [19]: 1100 nM
EC50 (Vaccinia virus): 0.5 µM
Activity (Coxsackievirus B4): inactive
EC50 (Tacaribe virus): < 0.094 µM
EC50 (Influenza B virus): > 160 nM
selectivity ratio [20]: 250
selectivity ratio [21]: > 2340
Activity [22]: inactive
EC50 (Dengue virus): 2.9 µM
Activity (West Nile virus): inactive
MCC [23]: ≥ 100 µM
CC50 [24]: 130 nM
CC50 [25]: 23.2 µM
EC50 (Pichinde virus): 1200 nM
Activity (Sindbis virus): inactive

Nc1ncc(Br)c2c1ncn2[C@@H]1C[C@H](CO)[C@@H](O)[C@H]1O
selectivity ratio [1]: 7.9
CC50 [26]: 80 µM
selectivity ratio [27]: > 1.3
EC50 (Influenza A virus [4]): > 290 µM
EC50 (Influenza A virus [8]): 1140 nM
EC50 (Influenza A virus [9]): > 290000 nM
Activity (SARS-CoV): inactive
EC50 (Measles morbillivirus): 16 µM
CC50 [11]: 70 µM
Activity (Hepatitis C virus): inactive
selectivity ratio [14]: > 340
selectivity ratio [28]: 9.7
EC50 (Rift Valley fever virus): 58.3 µM
selectivity ratio [15]: > 260
Activity [29]: inactive
selectivity ratio [30]: 4.3
selectivity ratio [17]: 2
CC50 [19]: > 290000 nM
EC50 (Vaccinia virus): 230 µM
EC50 (Tacaribe virus): 9.9 µM
EC50 (Influenza B virus): 840 nM
EC50 (Yellow fever virus): 19 µM
selectivity ratio [20]: > 5
Activity [22]: inactive
EC50 (Cytomegalovirus): 3.5 µM
EC50 (Dengue virus): 93 µM
Ratio CC50/EC50 [31]: 23
Activity (West Nile virus): inactive
MCC [23]: > 300 µM
CC50 [25]: > 79 µM
